Assay results: patent US11633459B2, “GIP derivatives and uses thereof” (priority 2018, dated 2023)
pEC50: −log10 of the molar value. *1 amine or outer side, *2 acyl side, *3 side chain or, on linkers, in order; H or OH if unused. Where a SMILES comes first, the peptide text is derived from it. Where no end group is shown, it is not given here. Side-chain parts run from the residue outwards. [ ]: non-standard residue; d: D form. The star is where a group is joined. X1 = O=C(O)CCCCCCCCCCCCCCCCCCC(=O)NCC1CCC(C(=O)*)CC1; C18 diacid = O=C(O)CCCCCCCCCCCCCCCCC(=O)*; γGlu = O=C(O)[C@H](CCC(=O)[*:2])N[*:1]; Nle = CCCC[C@H](N)C(=O)O; AEEA = NCCOCCOCC(=O)O; Aib = CC(C)(N)C(=O)O

What was measured:
[1] = molecular target: T1, human GIP receptor (Homo sapiens, UniProt P48546); assay: In vitro potency, CRE luciferase reporter gene assay, whole BHK cells expressing human GIP receptor; assay type: cell-based; conditions: 0.2% HSA
T1 construct: expressed in transfected cells; host or cells: BHK cells (parent line BHKTS13), clone BHK CRE luc2P hGIPR clone #5
T1 sequence (P48546 22-466): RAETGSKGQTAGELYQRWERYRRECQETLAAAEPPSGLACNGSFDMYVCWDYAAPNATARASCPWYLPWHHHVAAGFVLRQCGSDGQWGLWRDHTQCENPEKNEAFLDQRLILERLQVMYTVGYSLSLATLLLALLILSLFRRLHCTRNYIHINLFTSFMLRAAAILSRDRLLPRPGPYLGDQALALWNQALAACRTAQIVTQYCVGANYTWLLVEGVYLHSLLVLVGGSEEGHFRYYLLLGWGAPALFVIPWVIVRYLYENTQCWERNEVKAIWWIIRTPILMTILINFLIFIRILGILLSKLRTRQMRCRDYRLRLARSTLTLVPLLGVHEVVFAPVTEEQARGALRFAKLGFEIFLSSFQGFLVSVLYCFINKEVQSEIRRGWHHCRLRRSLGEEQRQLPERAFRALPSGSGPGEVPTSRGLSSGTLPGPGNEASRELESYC
Procedure: (§1) In Vitro Potency (CRE Luciferase; Whole Cells)
(§2) The in vitro potency is the measure of human GIP, GLP-1 or glucagon receptor activation, respectively, in a whole cell assay.
(§3) In vitro potency was determined by measuring the response of the human GIP, GLP-1 or glucagon receptor in a reporter gene assay in individual cell lines. […] When the respective receptor is activated it results in the production of cAMP, which in turn results in the luciferase protein being expressed. When assay incubation is completed the luciferase substrate (luciferin) is added and the enzyme converts luciferin to oxyluciferin to produce bioluminescence. The luminescence is measured as the readout for the assay.
(§4) The cells were derived from a clone containing the CRE luciferase element and were established by further transfection with the respective receptor to obtain the current clone.
(§5) The cells were cultured at 5% CO2 in Cell Culture Medium. They were aliquoted and stored in liquid nitrogen. The cells were kept in passage and were seeded out the day before each assay.
(§6) The Assay Buffer consisted of 1% ovalbumin and 0.1% Pluronic F-68 in Assay Medium with the addition of human serum albumin at twice the indicated concentrations.
(§7) 1) Cells were plated at 5000 cells/well and incubated overnight.
(§8) 2) Cells were washed three times in PBS.
(§9) 3) Assay Medium (50 μl aliquot) with or without serum albumin was added to each well in the assay plate.
(§10) 4) Stocks of the test compounds and reference compounds were diluted to a concentration of 0.2 μM in Assay Buffer. […] 8) The cells were washed three times with PBS plus some liquid in each well. 9) A 100 μl aliquot of steadylite plus reagent was added to each well of the assay plate (reagent was light sensitive). 10) Each assay plate was covered with aluminum foil to protect it from light and shaken for 30 min at room temperature. 11) Each assay plate was read in a microtiter plate reader. Calculations and Results
The data from the microtiter plate reader was transferred to GraphPad Prism software. The software performs a non-linear regression (log(agonist) vs response).
A minimum of two replicates was measured for each sample. The reported values are averages of the replicates.

[2] = Pharmacokinetic study in minipigs, terminal half-life after i.v. administration; conditions: female, Göttingen, minipig, plasma, iv, 5 nmol/kg
Procedure: Pharmacokinetic Study in Minipigs
The purpose of this study is to determine the half-life in vivo of the derivatives of the present invention after i.v. administration to minipigs, i.e. the prolongation of their time in the body and thereby their time of action. This is done in a pharmacokinetic (PK) study, where the terminal half-life of the derivative in question is determined. By terminal half-life is generally meant the period of time it takes to halve a certain plasma concentration, measured after the initial distribution phase.
Female Göttingen minipigs were obtained from Ellegaard Göttingen Minipigs (Dalmose, Denmark) approximately 7-14 months of age and weighing from approximately 16-35 kg were used in the studies. The minipigs were housed individually and fed restrictedly once daily with SDS minipig diet (Special Diets Services, Essex, UK).
After at 3 weeks of acclimatisation two permanent central venous catheters were implanted in vena cava caudalis in each animal. The animals were allowed 1 week recovery after the surgery, and were then used for repeated pharmacokinetic studies with a suitable wash-out period between successive derivative dosing.
Blood samples (for example 0.8 ml) were collected in EDTA buffer (8 mM) and then centrifuged at 4° C. and 1942G for 10 minutes.
Individual plasma concentration-time profiles were analysed by a non-compartmental model in Phoenix WinNonLin ver. […] (Pharsight Inc., Mountain View, Calif., USA), and the resulting terminal half-lives (harmonic mean) determined.

[3] = molecular target: T2, human GLP-1 receptor (Homo sapiens, UniProt P43220); assay: In vitro potency, CRE luciferase reporter gene assay, whole BHK cells expressing human GLP-1 receptor; assay type: cell-based; conditions: 0.2% HSA
T2 construct: expressed in transfected cells; host or cells: BHK cells (parent line BHKTS13), clone BHK CRE luc2P hGLP-1R clone #6
T2 sequence (P43220 24-463): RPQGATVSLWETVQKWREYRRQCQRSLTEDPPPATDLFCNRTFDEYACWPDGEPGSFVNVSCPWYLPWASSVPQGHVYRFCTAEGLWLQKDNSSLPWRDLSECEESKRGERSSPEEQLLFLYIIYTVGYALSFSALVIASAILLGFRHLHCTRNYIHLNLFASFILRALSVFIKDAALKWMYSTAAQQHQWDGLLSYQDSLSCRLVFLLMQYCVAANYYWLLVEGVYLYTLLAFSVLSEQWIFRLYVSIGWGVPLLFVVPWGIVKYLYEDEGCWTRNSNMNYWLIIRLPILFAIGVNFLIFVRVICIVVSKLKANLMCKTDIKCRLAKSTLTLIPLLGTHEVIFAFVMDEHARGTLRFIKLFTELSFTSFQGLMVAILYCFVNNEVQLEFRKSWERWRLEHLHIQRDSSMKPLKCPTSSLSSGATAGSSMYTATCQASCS
Procedure: as §1, §2, §3, §4, §5, §6, §7, §8, §9, §10
(§11) The data from the microtiter plate reader was transferred to GraphPad Prism software. […]
(§12) A minimum of two replicates was measured for each sample. […]

[4] = molecular target: T3, human glucagon receptor (Homo sapiens, UniProt P47871); assay: In vitro potency, CRE luciferase reporter gene assay, whole BHK cells expressing human glucagon receptor; assay type: cell-based; conditions: 0.2% HSA
T3 construct: expressed in transfected cells; host or cells: BHK cells (parent line BHKTS13), clone BHK CRE luc2P hGCGR clone #18
T3 sequence (P47871 26-477): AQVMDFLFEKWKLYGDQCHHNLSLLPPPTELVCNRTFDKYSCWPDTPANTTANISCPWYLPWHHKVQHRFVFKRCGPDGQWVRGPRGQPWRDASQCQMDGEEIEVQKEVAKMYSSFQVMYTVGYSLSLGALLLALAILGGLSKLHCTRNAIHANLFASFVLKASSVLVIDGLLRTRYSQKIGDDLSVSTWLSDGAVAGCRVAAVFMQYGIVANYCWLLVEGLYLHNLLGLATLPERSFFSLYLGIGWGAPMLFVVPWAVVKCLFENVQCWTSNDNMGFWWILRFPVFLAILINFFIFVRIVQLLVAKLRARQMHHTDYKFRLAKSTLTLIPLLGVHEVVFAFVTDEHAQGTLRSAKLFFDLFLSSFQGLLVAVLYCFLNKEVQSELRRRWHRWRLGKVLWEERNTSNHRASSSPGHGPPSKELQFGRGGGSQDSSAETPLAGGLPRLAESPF
Procedure: as §1, §2, §3, §4, §5, §6, §7, §8, §9, §10, §11, §12

Molecule | pEC50 [1] | half-life [2] | pEC50 [3] | pEC50 [4]
CCCC[C@H](NC(=O)[C@H](C)NC(=O)[C@@H](NC(=O)[C@H](CO)NC(=O)[C@H](Cc1ccc(O)cc1)NC(=O)[C@H](CC(=O)O)NC(=O)[C@H](CO)NC(=O)[C@@H](NC(=O)[C@H](Cc1ccccc1)NC(=O)[C@@H](NC(=O)CNC(=O)[C@H](CCC(=O)O)NC(=O)C(C)(C)NC(=O)[C@@H](N)Cc1ccc(O)cc1)[C@@H](C)O)[C@@H](C)CC)[C@@H](C)CC)C(=O)N[C@@H](CC(=O)O)C(=O)N[C@@H](CCCCN)C(=O)N[C@H](C(=O)N[C@@H](CCCNC(=N)N)C(=O)N[C@@H](CCC(N)=O)C(=O)N[C@@H](CCC(N)=O)C(=O)N[C@@H](CC(=O)O)C(=O)N[C@@H](Cc1ccccc1)C(=O)N[C@H](C(=O)N[C@@H](CCCCNC(=O)COCCOCCNC(=O)COCCOCCNC(=O)CC[C@H](NC(=O)C1CCC(CNC(=O)CCCCCCCCCCCCCCCCCCC(=O)O)CC1)C(=O)O)C(=O)N[C@@H](Cc1c[nH]c2ccccc12)C(=O)N[C@@H](CC(C)C)C(=O)N[C@@H](CC(C)C)C(=O)N[C@@H](C)C(=O)N[C@@H](CCC(N)=O)C(=O)N[C@@H](CCCCN)C(=O)NCC(=O)O)C(C)C)[C@@H](C)CC (stereo partly drawn) [Compound 3, N{Epsilon-24}-[2-[2-[2-[[2-[2-[2-[[(4S)-4-carboxy-4-[[4-[(19-carboxynonadecanoylamino)methyl]cyclohexanecarbonyl]amino]butanoyl]amino]ethoxy]ethoxy]acetyl]amino]ethoxy]ethoxy]acetyl]-[Aib2,Nle14,Arg18,Lys24]-hGIP(1-31)] | 10.35 | 4 days |  | 
CCCC[C@H](NC(=O)[C@H](C)NC(=O)[C@@H](NC(=O)[C@H](CO)NC(=O)[C@H](Cc1ccc(O)cc1)NC(=O)[C@H](CC(=O)O)NC(=O)[C@H](CO)NC(=O)[C@@H](NC(=O)[C@H](Cc1ccccc1)NC(=O)[C@@H](NC(=O)CNC(=O)[C@H](CCC(=O)O)NC(=O)C(C)(C)NC(=O)[C@@H](N)Cc1ccc(O)cc1)[C@@H](C)O)[C@@H](C)CC)[C@@H](C)CC)C(=O)N[C@@H](CC(=O)O)C(=O)N[C@@H](CCCCN)C(=O)N[C@H](C(=O)N[C@@H](CCCNC(=N)N)C(=O)N[C@@H](CCC(N)=O)C(=O)N[C@@H](CCC(N)=O)C(=O)N[C@@H](CC(=O)O)C(=O)N[C@@H](Cc1ccccc1)C(=O)N[C@H](C(=O)N[C@@H](CCCCNC(=O)CC[C@H](NC(=O)CC[C@H](NC(=O)CC[C@H](NC(=O)C1CCC(CNC(=O)CCCCCCCCCCCCCCCCCCC(=O)O)CC1)C(=O)O)C(=O)O)C(=O)O)C(=O)N[C@@H](Cc1c[nH]c2ccccc12)C(=O)N[C@@H](CC(C)C)C(=O)N[C@@H](CC(C)C)C(=O)N[C@@H](C)C(=O)N[C@@H](CCC(N)=O)C(=O)N[C@@H](CCCCN)C(=O)NCC(=O)O)C(C)C)[C@@H](C)CC (stereo partly drawn) [Compound 4, N{Epsilon-24}-[(4S)-4-carboxy-4-[[(4S)-4-carboxy-4-[[(4S)-4-carboxy-4-[[4-[(19-carboxynonadecanoylamino)methyl]cyclohexanecarbonyl]amino]butanoyl]amino]butanoyl]amino]butanoyl]-[Aib2,Nle14,Arg18,Lys24]-hGIP(1-31)] | 10.14 | 5.17 days |  | 
CCCC[C@H](NC(=O)[C@H](C)NC(=O)[C@@H](NC(=O)[C@H](CO)NC(=O)[C@H](Cc1ccc(O)cc1)NC(=O)[C@H](CC(=O)O)NC(=O)[C@H](CO)NC(=O)[C@@H](NC(=O)[C@H](Cc1ccccc1)NC(=O)[C@@H](NC(=O)CNC(=O)[C@H](CCC(=O)O)NC(=O)C(C)(C)NC(=O)[C@@H](Cc1ccc(O)cc1)NC(C)=O)[C@@H](C)O)[C@@H](C)CC)[C@@H](C)CC)C(=O)N[C@@H](CC(=O)O)C(=O)N[C@@H](CCCCN)C(=O)N[C@H](C(=O)N[C@@H](Cc1c[nH]cn1)C(=O)N[C@@H](CCC(N)=O)C(=O)N[C@@H](CCC(N)=O)C(=O)N[C@@H](CC(=O)O)C(=O)N[C@@H](Cc1ccccc1)C(=O)N[C@H](C(=O)N[C@@H](CCCCNC(=O)CC[C@H](NC(=O)CC[C@H](NC(=O)CC[C@H](NC(=O)C1CCC(CNC(=O)CCCCCCCCCCCCCCCCCCC(=O)O)CC1)C(=O)O)C(=O)O)C(=O)O)C(=O)N[C@@H](Cc1c[nH]c2ccccc12)C(=O)N[C@@H](CC(C)C)C(=O)N[C@@H](CC(C)C)C(=O)N[C@@H](C)C(=O)N[C@@H](CCC(N)=O)C(=O)N[C@@H](CCCCN)C(=O)N1CCC[C@H]1C(N)=O)C(C)C)[C@@H](C)CC (stereo partly drawn) [Compound 32, N{1}-acetyl,N{Epsilon-24}-[(4S)-4-carboxy-4-[[(4S)-4-carboxy-4-[[(4S)-4-carboxy-4-[[4-[(19-carboxynonadecanoylamino)methyl]cyclohexanecarbonyl]amino]butanoyl]-amino]butanoyl]amino]butanoyl]-[D-Tyr1,Aib2, Nle14,Lys24,Pro31]-hGIP(1-31) amide] (Ac-[dY][Aib]EGTFISDYSIA[Nle]DKIHQQDFVK([γGlu-γGlu-γGlu-X1])WLLAQKP-NH2) |  | 5.04 days |  | 
Y[Aib]EGTFISDYSIA[Nle]DKIHQQDFVK([AEEA-AEEA-γGlu-C18 diacid])WLLAQKGKEDDWKHNITQ [Compound 36, N{Epsilon-24}-[2-[2-[2-[[2-[2-[2-[[(4S)-4-carboxy-4-(17-carboxyheptadecanoylamino)butanoyl]amino]ethoxy]ethoxy]acetyl]amino]ethoxy]ethoxy]acetyl]-[Aib2,Nle14,Lys24,Glu33,Asp34]-hGIP] | 11.22 |  | < 7.00 | < 7.00

Further lines, results first:

pEC50 [1] | half-life [2] | pEC50 [3] | pEC50 [4] | Molecule
10.15 | 5.5 days |  |  | CCCC[C@H](NC(=O)[C@H](C)NC(=O)[C@@H](NC(=O)[C@H](CO)NC(=O)[C@H](Cc1ccc(O)cc1)NC(=O)[C@H](CC(=O)O)NC(=O)[C@H](CO)NC(=O)[C@@H](NC(=O)[C@H](Cc1ccccc1)NC(=O)[C@@H](NC(=O)CNC(=O)[C@H](CCC(=O)O)NC(=O)C(C)(C)NC(=O)[C@@H](N)Cc1ccc(O)cc1)[C@@H](C)O)[C@@H](C)CC)[C@@H](C)CC)C(=O)N[C@@H](CC(=O)O)C(=O)N[C@@H](CCCCN)C(=O)N[C@H](C(=O)N[C@@H](CCCNC(=N)N)C(=O)N[C@@H](CCC(N)=O)C(=O)NC(C)(C)C(=O)N[C@@H](CC(=O)O)C(=O)N[C@@H](Cc1ccccc1)C(=O)N[C@H](C(=O)N[C@@H](CCCCNC(=O)CC[C@H](NC(=O)CC[C@H](NC(=O)CC[C@H](NC(=O)C1CCC(CNC(=O)CCCCCCCCCCCCCCCCCCC(=O)O)CC1)C(=O)O)C(=O)O)C(=O)O)C(=O)N[C@@H](Cc1c[nH]c2ccccc12)C(=O)N[C@@H](CC(C)C)C(=O)N[C@@H](CC(C)C)C(=O)N[C@@H](C)C(=O)N[C@@H](CCC(N)=O)C(=O)N[C@@H](CCCCN)C(=O)NCC(=O)O)C(C)C)[C@@H](C)CC (stereo partly drawn) [Compound 12, N{Epsilon-24}-[(4S)-4-carboxy-4-[[(4S)-4-carboxy-4-[[(4S)-4-carboxy-4-[[4-[(19-carboxynonadecanoylamino)methyl]cyclohexanecarbonyl]amino]butanoyl]amino]-butanoyl]amino]butanoyl]-[Aib2,Nle14,Arg18,Aib20,Lys24]-hGIP(1-31)] (H-Y[Aib]EGTFISDYSIA[Nle]DKIRQ[Aib]DFVK([γGlu-γGlu-γGlu-X1])WLLAQKG-OH)
11.23 |  | < 7.00 | < 7.00 | H-Y[Aib]EGTFISDYSIA[Nle]DKIHQQDFVK([γGlu-γGlu-γGlu-C18 diacid])WLLAQKGKEDDWKHNITQ [Compound 39, N{Epsilon-24}-[(4S)-4-carboxy-4-[[(4S)-4-carboxy-4-[[(4S)-4-carboxy-4-(17-carboxyheptadecanoylamino)butanoyl]amino]butanoyl]amino]butanoyl]-[Aib2,Nle14,Lys24,Glu33,Asp34]-hGIP]
11.05 |  | < 7.00 | < 7.00 | H-Y[Aib]EGTFISDYSIA[Nle]DKIHQQDFVK([γGlu-γGlu-γGlu-C18 diacid])WLLAQKGKEEDWKHNITQ [Compound 38, N{Epsilon-24}-[(4S)-4-carboxy-4-[[(4S)-4-carboxy-4-[[(4S)-4-carboxy-4-(17-carboxyheptadecanoylamino)butanoyl]amino]butanoyl]amino]butanoyl]-[Aib2,Nle14,Lys24,Glu33,Glu34]-hGIP]
